Experimental data taken from patent US20240216354A1, “IMMUNOMODULATORY IMIDE DRUGS AS ZETA-CHAIN-ASSOCIATED PROTEIN KINASE 70 (ZAP70) AGONISTS AND USES THEREOF” (Dana-Farber Cancer Institute, Inc., priority 2019, published 2024).

Tests used:
granzyme-B (GZM-B) = experiment: GZM-B expression in KHYG-1 cells (immunoblotting, real-time qPCR); assay type: cell-based; conditions: pomalidomide 0.25-1 μM, 24 h
Protocol: (A) KHYG1 cells were cultured with pomalidomide (0.25-1 μM) for 24 h. (B) Isolated primary NK cells from healthy volunteers (#1, #2) were cultured with pomalidomide (0.3-1 μM) for 24 h. (C) KHYG-1 cells were transfected with Scsi or Zap-70si. After 48 h, cells were cultured for 24 h in the absence or presence (0.5 μM) of pomalidomide. Whole cell lysates and RNAs were subjected to immunoblotting using indicated Abs.
(A) KHYG-1 cells were transfected with Scsi or CRBNsi. After 48 h, cells were cultured in the absence or presence of pomalidomide (0.5 μM) for 24 h, and cell lysates immunoblotted with indicated Abs. (B) KHYG-1 cells were transfected with Scsi or Zap-70si, and then cultured for 72 h with pomalidomide (0.25 μM), in the absence of IL-2. Cells were counted and incubated with calcein AM-labeled U266 for 4 h at indicated effector/target (E/T) ratios.
(A) KHYG-1 cells were transfected with CRBN, IKZF1, or IKZF3 siRNA. The transfectants were then cultured for 24 h with pomalidomide (0.5 μM). The arrow indicates CRBN. (B) KHYG-1 cells were cultured with pomalidomide for 24 h (0.5 μM), in the presence or absence of bortezomib (BTZ; 2.5 and 5 nM). (C, D) KHYG-1 cells were cultured for 24 h with lenalidomide, pomalidomide, or CC-220 (i.e., iberdomide) (0.01-1 μM). Whole cell lysates and RNAs were subjected to immunoblotting using indicated Abs (C) and real-time q-PCR (D), respectively.

Zap-70 = biological target: T1, Zap-70 (Homo sapiens, UniProt P43403); experiment: Immunoblotting of p-Zap-70 and p-LAT in primary T-cells from healthy volunteer; assay type: cell-based; design: endogenous in cells; host or cells: primary PBMCs, primary T cells and primary NK cells from healthy volunteers; conditions: pomalidomide 0.25-1 μM, 16 h
T1 sequence (P43403 1-619): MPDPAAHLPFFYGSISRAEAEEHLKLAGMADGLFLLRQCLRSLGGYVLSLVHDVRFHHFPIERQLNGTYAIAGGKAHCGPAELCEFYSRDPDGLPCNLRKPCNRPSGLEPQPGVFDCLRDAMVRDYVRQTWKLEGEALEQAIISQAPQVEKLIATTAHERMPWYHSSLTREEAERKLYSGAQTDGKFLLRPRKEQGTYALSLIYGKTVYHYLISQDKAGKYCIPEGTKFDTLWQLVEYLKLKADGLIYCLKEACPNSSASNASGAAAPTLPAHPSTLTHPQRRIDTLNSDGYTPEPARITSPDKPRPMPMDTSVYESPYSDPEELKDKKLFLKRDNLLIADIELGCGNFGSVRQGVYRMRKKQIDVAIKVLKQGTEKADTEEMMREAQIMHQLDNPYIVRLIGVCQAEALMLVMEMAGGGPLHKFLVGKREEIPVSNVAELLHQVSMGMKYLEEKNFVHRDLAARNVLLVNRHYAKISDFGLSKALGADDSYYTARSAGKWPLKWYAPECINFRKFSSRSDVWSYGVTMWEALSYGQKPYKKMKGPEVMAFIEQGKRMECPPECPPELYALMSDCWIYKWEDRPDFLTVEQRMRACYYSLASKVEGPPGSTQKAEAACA
Protocol: (A) PBMCs were cultured with pomalidomide (“Pom”) (0.01-1 μM) for 16 h. […] (B) PBMCs were cultured with pomalidomide (0.1 and 1 μM) for the indicated time periods. (C) PBMCs were cultured with lenalidomide (“Len”) (1 μM) for 16 h. (D) Primary T-cells from healthy volunteer were cultured with pomalidomide (0.25-1 μM) for 16 h. (E) Jurkat cells were cultured with pomalidomide (0.5 and 1 μM) for 16 h. Whole cell lysates were subjected to immunoblotting (A-E) using indicated Abs. (F) Jurkat cells were cultured with pomalidomide (0.01-1 μM) or lenalidomide (0.01-1 μM) for 72 h. Cell growth was assessed by MTT assay.

U266 cells = experiment: Primary NK cell cytolytic activity against calcein AM-labeled U266; assay type: cell-based, human; conditions: primary NK cells #1, #2, pomalidomide 0.25-1 μM 24 h, E/T 5/1 and 10/1
Protocol: KHYG-1 cells were cultured with pomalidomide (0.25-1 μM) for 24 h. (A) Whole cell lysates were subjected to immunoblotting using indicated Abs. (B) KHYG-1 cells were incubated with calcein-AM-stained U266 cells for 4 h at the indicated effector/target (E/T) ratios. Percent specific lysis was calculated as described previously. (C) KHYG-1 cells were transfected with Scsi or Zap-70si, and then cultured with pomalidomide (0.25 μM) for 72 h in the absence of IL-2. Viable cell number was determined, and cells were then incubated with calcein AM-labeled U266 target cells for 4 h at indicated effector/target (E/T) ratios. Percent specific lysis was calculated as described previously. (D) After transfection with Scsi or Zap-70si, cells were cultured with lenalidomide or pomalidomide for 72 h. Cell growth was assessed by MTT assay. (E) KHYG-1 cells were transfected with scrambled (Scsi) or CRBNsi. The transfectants were then cultured with pomalidomide (0.5 μM) for 24 h, and whole cell lysates were subjected to immunoblotting using indicated Abs. The arrow indicates CRBN expression. (F) Primary NK cells (#1, #2, #3, #4) were isolated from healthy volunteer's PBMCs, as described in Materials and Methods. NK cells were cultured with pomalidomide (0.5 μM) for 24 h, and whole cell lysates were subjected to immunoblotting using indicated Abs. […] Percent specific lysis was calculated as previously described.

Q: How did the GZM-B expression (granzyme-B (GZM-B)) turn out when `Nc1cccc2c1C(=O)N(C1CCC(=O)NC1=O)C2=O` (stereo not shown) [pomalidomide] was run?
A: Its GZM-B expression is “upregulated GZM-B expression”.

Q: And the “p-LAT (immunoblotting)” value (Zap-70)?
A: The value was “induced p-Zap-70 and p-LAT in primary T cells”.

Q: What about the “p-Zap-70 (immunoblotting)” value (Zap-70) of the same compound?
A: The value was “induced p-Zap-70 and p-LAT in primary T cells”.

Q: And the “NK cytolytic activity against U266 cells” value (U266 cells)?
A: Its value is “significantly enhanced their NK cytolytic activity against U266 cells”.
